Data published in US9187437B2, “Substituted oxadiazole compounds” (BRISTOL-MYERS SQUIBB COMPANY, priority 2010, dated 2015).

Assays:
S1P1 [1] = target: T1, S1P1 (Homo sapiens (Human), UniProt P21453); test: Receptor [35S] GTPγS Binding Assay, S1P1/CHO cell membranes; format: biochemical; conditions: membranes from S1P1/CHO cells; rounded to two significant digits
Method: (§1) Receptor [35S] GTPγS Binding Assays
(§2) Compounds were loaded in a 384 Falcon v-bottom plate (0.5 μl/well in a 11 point, 3-fold dilution). Membranes prepared from S1P1/CHO cells or EDG3-Ga15-bla HEK293T cells were added to the compound plate (40 μl/well, final protein 3 μg/well) with MULTIDROP®. [^35S]GTP (1250 Ci/mmol, Perkin Elmer) was diluted in assay buffer: 20 mM HEPES, pH7.5, 10 mM MgCl2, 150 mM NaCl, 1 mM EGTA, 1 mM DTT, 10 μM GDP, 0.1% fatty acid free BSA, and 10 μg/ml Saponin to 0.4 nM. 40 μl of the [^35S] GTP solution was added to the compound plate with a final concentration of 0.2 nM. The reaction was kept at room temperature for 45 min. At the end of incubation, all the mixtures in the compound plate were transferred to Millipore 384-well FB filter plates via the VELOCITY11® Vprep liquid handler. The filter plate was washed with water 4 times by using the manifold Embla plate washer and dried at 60° C. for 45 min. MicroScint 20 scintillation fluid (30 μl) was added to each well for counting on the Packard TOPCOUNT®. EC50 is defined as the agonist concentration that corresponds to 50% of the Ymax (maximal response) obtained for each individual compound tested. The results in Table B were rounded to two significant digits.

S1P3 = S1P3 (Homo sapiens (Human), UniProt Q99500); test: Receptor [35S] GTPγS Binding Assay, EDG3-Ga15-bla HEK293T cell membranes; format: biochemical; conditions: membranes from EDG3-Ga15-bla HEK293T cells; rounded to two significant digits
Sequence of S1P3 (Q99500 whole entry): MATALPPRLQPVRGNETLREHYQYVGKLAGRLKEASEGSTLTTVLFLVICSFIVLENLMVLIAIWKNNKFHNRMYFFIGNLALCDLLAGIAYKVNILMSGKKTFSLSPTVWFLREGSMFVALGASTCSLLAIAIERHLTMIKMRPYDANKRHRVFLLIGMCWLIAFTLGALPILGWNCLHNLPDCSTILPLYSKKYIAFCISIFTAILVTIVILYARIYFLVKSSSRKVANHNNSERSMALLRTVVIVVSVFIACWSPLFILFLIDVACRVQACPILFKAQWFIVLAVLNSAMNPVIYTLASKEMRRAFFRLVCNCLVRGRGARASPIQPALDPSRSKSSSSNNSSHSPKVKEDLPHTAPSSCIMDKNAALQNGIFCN
Method: as §1, §2

S1P1 [2] = target: T1, S1P1; test: S1P1 Binding Assay (33P-S1P radioligand competition, membranes from CHO cells); conditions: membranes from CHO cells expressing human S1P1; 0.03 nM 33P-S1P; rounded to two significant digits
Method: Membranes were prepared from CHO cells expressing human S1P1. Cells pellets (1×10^8 cells/pellet) were suspended in buffer containing 20 mM HEPES, pH 7.5, 50 mM NaCl, 2 mM EDTA and Protease Inhibitor cocktail (Roche), and disrupted on ice using the Polytron homogenizer. The homogenate was centrifuged at 20,000 rpm (48,000 g) and the supernatant was discarded. The membrane pellets were resuspended in buffer containing 50 mM HEPES, pH 7.5, 100 mM NaCl, 1 mM MgCl2, 2 mM EDTA and stored in aliquots at −80° C. after protein concentration determination.
The IC50 is defined as the concentration of competing ligand needed to reduce specific binding by 50%.

T1 sequence (P21453 whole entry): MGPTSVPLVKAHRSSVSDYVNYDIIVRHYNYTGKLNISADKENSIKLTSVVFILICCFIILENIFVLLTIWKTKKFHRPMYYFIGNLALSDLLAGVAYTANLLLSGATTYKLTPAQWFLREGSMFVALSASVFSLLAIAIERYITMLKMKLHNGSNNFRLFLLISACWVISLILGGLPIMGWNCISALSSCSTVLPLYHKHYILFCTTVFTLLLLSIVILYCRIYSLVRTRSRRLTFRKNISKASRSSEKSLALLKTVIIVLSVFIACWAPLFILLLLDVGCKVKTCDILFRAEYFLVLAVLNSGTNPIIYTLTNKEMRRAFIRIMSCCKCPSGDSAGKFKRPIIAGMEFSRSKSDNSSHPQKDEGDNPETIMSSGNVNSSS

SMILES	EC50 (S1P1 [1])	EC50 (S1P3)	IC50 (S1P1 [2])
Clc1ncn(Cc2cccc(-c3noc(CCC4(c5ccccc5)CCCCC4)n3)c2)c1Cl [Example 24, 3-(3-((4,5-dichloro-1H-imidazol-1-yl)methyl)phenyl)-5-(2-(1-phenylcyclohexyl)ethyl)-1,2,4-oxadiazole]	3200 nM	1300 nM	–
Cc1ccc(-c2noc(CCC3(c4cc(F)cc(F)c4)CCCCC3)n2)c(=O)[nH]1 [Example 1, 3-(5-(2-(1-(3,5-Difluorophenyl)cyclohexyl)ethyl)-1,2,4-oxadiazol-3-yl)-6-methyl-2(1H)-pyridinone]	–	–	1300 nM
Fc1ccc(-c2noc(CCC3(c4ccccc4)CCCCC3)n2)c(F)c1 [Example 28, 3-(2,4-difluorophenyl)-5-(2-(1-phenylcyclohexyl)ethyl)-1,2,4-oxadiazole]	–	–	25 nM
Fc1ccccc1COc1ccc(-c2noc(CCC3(c4ccccc4)CCCCC3)n2)cc1 [Example 20, 3-(4-((2-fluorobenzyl)oxy)phenyl)-5-(2-(1-phenylcyclohexyl)ethyl)-1,2,4-oxadiazole]	–	–	410 nM
Nc1cc(-c2noc(CCC3(c4ccccc4)CCCCC3)n2)ccn1 [Example 29, 4-(5-(2-(1-phenylcyclohexyl)ethyl)-1,2,4-oxadiazol-3-yl)-2-pyridinamine]	36 nM	430 nM	–
c1ccc(-c2noc(C3(c4ccccc4)CCCCC3)n2)cc1 [Example 42, 3-Phenyl-5-(1-phenylcyclohexyl)-1,2,4-oxadiazole, reference compound]	> 62000 nM	–	12000 nM
Nc1ncccc1-c1noc(CCC2(c3ccccc3)CCCCC2)n1 [Example 33, 3-(5-(2-(1-phenylcyclohexyl)ethyl)-1,2,4-oxadiazol-3-yl)-2-pyridinamine]	67 nM	550 nM	1.9 nM
c1ccc(C2(CCc3nc(-c4cccnc4)no3)CCCCC2)cc1 [Example 38, 3-(5-(2-(1-phenylcyclohexyl)ethyl)-1,2,4-oxadiazol-3-yl)pyridine]	100 nM	2200 nM	–
c1ccc(-c2noc(CCC3(c4ccccc4)CCCCC3)n2)cc1 [Example 7, 3-phenyl-5-(2-(1-phenylcyclohexyl)ethyl)-1,2,4-oxadiazole]	130 nM	630 nM	3.3 nM
Clc1ccc(COc2ccc(-c3noc(CCC4(c5ccccc5)CCCCC4)n3)cc2)cc1 [Example 27, 3-(4-((4-chlorobenzyl)oxy)phenyl)-5-(2-(1-phenylcyclohexyl)ethyl)-1,2,4-oxadiazole]	–	–	610 nM
Cc1ccsc1-c1noc(CCC2(c3ccccc3)CCCCC2)n1 [Example 40, 3-(3-methyl-2-thienyl)-5-(2-(1-phenylcyclohexyl)ethyl)-1,2,4-oxadiazole]	–	–	1.2 nM
Fc1ccc(-c2noc(CCC3(c4ccccc4)CCCCC3)n2)cc1 [Example 5, 3-(4-fluorophenyl)-5-(2-(1-phenylcyclohexyl)ethyl)-1,2,4-oxadiazole]	–	–	12 nM

More lines, now with the values ahead:

EC50 (S1P1 [1])	EC50 (S1P3)	IC50 (S1P1 [2])	SMILES
–	–	13 nM	O=c1cc(-c2noc(CCC3(c4cc(F)cc(F)c4)CCCCC3)n2)cc[nH]1 [Example 2, 4-(5-(2-(1-(3,5-Difluorophenyl)cyclohexyl)ethyl)-1,2,4-oxadiazol-3-yl)-2(1H)-pyridinone]
–	–	210 nM	Fc1cc(-c2noc(CCC3(c4ccccc4)CCCCC3)n2)ccc1C(F)(F)F [Example 13, 3-(3-fluoro-4-(trifluoromethyl)phenyl)-5-(2-(1-phenylcyclohexyl)ethyl)-1,2,4-oxadiazole]
–	–	97 nM	c1ccc(C2(CCc3nc(-c4ccccn4)no3)CCCCC2)cc1 [Example 30, 2-(5-(2-(1-phenylcyclohexyl)ethyl)-1,2,4-oxadiazol-3-yl)pyridine]
710 nM	> 62000 nM	33 nM	FC(F)(F)c1cccc(-c2noc(CCC3(c4ccccc4)CCCCC3)n2)c1 [Example 8, 5-(2-(1-phenylcyclohexyl)ethyl)-3-(3-(trifluoromethyl)phenyl)-1,2,4-oxadiazole]
50 nM	430 nM	0.54 nM	Clc1cc(-c2noc(CCC3(c4ccccc4)CCCCC3)n2)ccn1 [Example 32, 2-chloro-4-(5-(2-(1-phenylcyclohexyl)ethyl)-1,2,4-oxadiazol-3-yl)pyridine]
4900 nM	16000 nM	8.1 nM	COc1ccc(OC)c(-c2noc(CCC3(c4ccccc4)CCCCC3)n2)c1 [Example 26, 3-(2,5-dimethoxyphenyl)-5-(2-(1-phenylcyclohexyl)ethyl)-1,2,4-oxadiazole]
330 nM	5900 nM	–	Fc1ccc(-c2noc(CCC3(c4ccccc4)CCCCC3)n2)cc1F [Example 12, 3-(3,4-difluorophenyl)-5-(2-(1-phenylcyclohexyl)ethyl)-1,2,4-oxadiazole]
2200 nM	1700 nM	–	COc1cc(OC)cc(-c2noc(CCC3(c4ccccc4)CCCCC3)n2)c1 [Example 19, 3-(3,5-dimethoxyphenyl)-5-(2-(1-phenylcyclohexyl)ethyl)-1,2,4-oxadiazole]
280 nM	> 62000 nM	–	FC(F)(F)c1cc(-c2noc(CCC3(c4ccccc4)CCCCC3)n2)cc(C(F)(F)F)c1 [Example 4, 3-(3,5-bis(trifluoromethyl)phenyl)-5-(2-(1-phenylcyclohexyl)ethyl)-1,2,4-oxadiazole]
530 nM	2200 nM	–	Cc1cccc(-c2noc(CCC3(c4ccccc4)CCCCC3)n2)c1 [Example 9, 3-(3-methylphenyl)-5-(2-(1-phenylcyclohexyl)ethyl)-1,2,4-oxadiazole]
740 nM	1200 nM	–	Clc1ccc(-c2noc(CCC3(c4ccccc4)CCCCC3)n2)c(Cl)c1 [Example 17, 3-(2,4-dichlorophenyl)-5-(2-(1-phenylcyclohexyl)ethyl)-1,2,4-oxadiazole]
–	–	67 nM	[O-][n+]1ccc(-c2noc(CCC3(c4ccccc4)CCCCC3)n2)cc1 [Example 34, 4-(5-(2-(1-phenylcyclohexyl)ethyl)-1,2,4-oxadiazol-3-yl)pyridine 1-oxide]
